In assay [1] the test system is noninfected Sf9 insect cells. The assay is described as follows: FACS labeling of noninfected Sf9 insect cells. It counts as binding. The note with it: FACScan. From the text: In FIG. 4B, Sf9 cells uniquely expressing IGF-IR are labeled with αIR3 (2) or anti-IR(3), the peak (1) representing the single cells. In FIG. 4C, Sf9 cells uniquely expressing IR are labeled with an anti-IR (3) or αIR3 (2), the peak (1) representing the single cells.
evaluating the supernatants of hybridomas positive in the two first screenings in terms of differential recognition of IGF-IR and of IR on insect cells infected with baculoviruses respectively expressing IGF-IR or IR,
For the immunization stage, mice were injected twice, by the subcutaneous route, with 8 μg of recombinant IGF-IR. Three days before the fusion of the cells of the […] with the cells of the murine myeloma Sp2OAg14, the mice were stimulated by an intravenous injection of 3 μg of the recombinant receptor. Fourteen days after the fusion, the supernatants of hybridomas were screened by ELISA, on plates sensitized by recombinant IGF-IR. The hybridomas whose supernatants were found positive were conserved and amplified before being tested on the FACScan so as to verify that the antibodies produced were likewise capable of recognizing native IGF-IR. In order to do this, MCF-7 cells from an estrogen-dependent tumor of the breast overexpressing IGF-IR were incubated with each of the culture supernatants produced by the hybridomas selected in ELISA. […]

In assay [2] the test system is MCF-7 cells. The assay is described as follows: IGF1-induced proliferation of MCF-7 cells (3H thymidine incorporation). It counts as cell-based, human. Conditions: antibody 10 μg/ml; IGF-I 1 to 50 ng/ml. The protocol: The cell proliferation is evaluated by following the incorporation of ^3H thymidine. The commercial antibody αIR3 is used as a positive control of the experiment.
The cell proliferation is estimated by following on the β counter the incorporation of tritiated thymidine by the cells. The results are expressed as a proliferative index.

For assay [3], the system named is MCF-7 cells. Nature of the assay: IGF2-induced proliferation of MCF-7 cells. It counts as cell-based, human. Conditions: IGF2 200 ng/ml; MAb 10 μg/ml. The protocol: As indicated above, IGF-IR is overexpressed by numerous tumors but it has furthermore been described that in a good part of the cancers of the breast and of the colon especially, the proliferation signal is given to this receptor via IGF2 (sometimes written IGF-II or IGFII). […] In order to do this, cells were inoculated into 96-well plates, deprived of fetal calf serum and stimulated by the addition of 200 ng of IGF2 per ml, final concentration, of medium, in the presence and in the absence of the MAb to be tested introduced at a concentration of 10 μg/ml.

Assay [4] concerns DU145 tumor. Nature of the assay: DU145 androgen-independent prostate tumor xenograft. It counts as in vivo, nude mice. The note with it: 250 μg/dose/mouse twice per week i.p. The protocol: (§1) In these 4 models, the treatment was carried out twice per week i.p. at a rate of 250 μg/dose/mouse.
For assay [5], the system named is SK-ES-1 tumor. Nature of the assay: SK-ES-1 osteosarcoma xenograft. It counts as in vivo, nude mice. Conditions: 250 μg/dose/mouse twice per week i.p. The procedure: as §1
Assay [6] has as its system BxPC3 tumor. The assay is described as follows: BxPC3 pancreatic cancer xenograft. It counts as in vivo, nude mice. The note with it: 250 μg/dose/mouse twice per week i.p. The procedure: as §1
Assay [7] has as its system IRS-1. The assay is described as follows: Tyrosine phosphorylation of IRS-1 in IGF-I-stimulated MCF7 cells. It counts as cell-based, human. Conditions: antibodies 10 μg/ml, IGF-I 50 ng/ml. The procedure:
MCF7 cells are cultured for 24 hours at 5·10^4 cells/cm^2 (75 cm^2 plates, COSTAR) in 20 ml of RPMI without phenol red, mixed with 5 mM of glutamine, penicillin/streptomycin (respectively 100 U/100 μg/ml) and 10% of fetal calf serum. After three washes in PBS, the cells were incubated for 12 hours in medium (RPMI) without phenol red, devoid of fetal calf serum and mixed with 5 mM of glutamine, penicillin/streptomycin, bovine serum albumin at 0.5 μg/ml (Sigma A-8022) and transferrin at 5 μg/ml (Sigma T8158).
For activation, the cells were first incubated at 37° C. for 2 minutes with blocking antibodies (10 μg/ml) and then IGF-I (Sigma I3769, 50 ng/ml) was added for two additional minutes. The reaction was stopped by aspiration of the incubation medium and the plates were laid on ice. […] The solutions were centrifuged at 12,000 rpm for ten minutes (4° C.) and the protein concentrations of the supernatants were quantified by BCA.
500 μg of proteins of the cell lysate were mixed with the anti-IGF-IR (Santa cruz Ref.: sc-713) for immunoprecipitation and incubated on the shaker at 4° C. for 1.5 hours. […] The supernatants were analyzed by electrophoresis on polyacrylamide SDS gel (8% Novex EC6015). […]

Assay [8] has as its system A549 cells implanted intrapleurally. Nature of the assay: Orthotopic (intrapleural) A549 model, survival. The note with it: 10^6 A549 cells intrapleural; Example 3b: 500 μg/mouse challenge then 250 μg twice per week.
Experimental: In order to evaluate our antibody in a model closer to reality, the A549 cells were implanted in an intrapleural location. […] In the study which was carried out, 10^6 A549 cells were injected intrapleurally into female nude mice. 7 days after implantation, the mice were divided into 2 batches of 22.
In order to evaluate the antitumor activity of an antibody mixture directed respectively against IGF-IR and EGFR, 10^6 A549 cells (non-small cell lung cancer) were implanted in the intrapleural cavity of nude mice.
For the combined therapy, antibodies were mixed prior to the injection.
The T/C % are calculated according the following formula, [MEDIAN OF TREATED MICE/MEDIAN OF CONTROL MICE×100].
Assay [9] relates to A549 cells. The assay is described as follows: ADCC with human NK cells on A549 cells (51Cr). The note with it: 4 hours, 10 μg antibody per 5·10^5 cells. It counts as cell-based. The procedure:
In order to verify this point, NK (Natural Killer) cells coming from the peripheral blood of human donors are placed in the presence of A549 or MCF-7 cells previously incubated for 4 hours with 10 μg of 7H2HM antibody per 5·10^5 cells and labeled with ^51Cr ([…]).

Entries after “also recorded” stand apart in the source; their conditions may differ.

Turning to “7C10: murine monoclonal anti-IGF-IR IgG1 secreted by the hybridoma deposited at the CNCM under the number I-2717”, the “MFI (Mean fluorescence intensity), Noninfected cells” value in assay [1] is 8.6. The “inhibition of IGF1-induced proliferation of MCF-7 cells” value in [2] is “significantly inhibits the growth”. Moreover, the “inhibition of IGF2-induced growth of MCF-7 cells” value in [3] was “totally inhibits the growth induced by IGF2; also recorded: significantly better than that of 1H7”. Besides, the “antitumor activity in DU145 model” value in assay [4] is reported as “significant activity”. Moreover, the “antitumor activity in SKES-1 osteosarcoma model” value in assay [5] is “significant activity”. The “antitumor activity in BxPC3 model” value in assay [6] was “significant activity”. Moreover, the “inhibition of tyrosine phosphorylation of IRS-1” value in assay [7] is “inhibit the phosphorylation”. The “survival of mice orthotopically implanted with A549 cells” value in assay [8] was “significant extension of survival; also recorded: comparable and a significant gain in survival”.

“h7C10: humanized 7C10 anti-IGF-IR antibody, isotype IgG1 (humanized 1 written 7H2HM)”: the “inhibition of IGF1-induced proliferation of MCF-7 cells” value in [2] is given as “perfectly preserved their properties of inhibiting the IGF1-induced growth”. Further, in assay [7], the “inhibition of tyrosine phosphorylation of IRS-1” value was “inhibit the phosphorylation”. Moreover, the “ADCC on A549 cells” value in assay [9] is reported as “capable of inducing an ADCC”.

The values above are taken from patent US8101180B2, “Anti-IGF-IR and/or anti-insulin/IGF-I hybrid receptors antibodies and uses thereof” (Pierre Fabre Medicament, priority 2002, dated 2012).
